This is an account of results in patent US10583127B2, “Amine salt of (1R, 3S)-3-(5-cyano-4-phenyl-1,3- thiazol-2-ylcarbamoyl)cyclopentane carboxylic acid” (PALOBIOFARMA, S.L., priority 2017, dated 2020).

Entries after “also recorded” stand apart in the source; their conditions may differ. Like-named read-outs stand apart in the source and are kept apart here.

Data set [1] is described as follows: Hygroscopicity study by Dynamic Vapour Sorption (DVS) profiles. The class given is physicochemical. The settings on record: for moisture content at 25% RH / moisture content at 55% RH / moisture content at 75% RH (variation in the moisture content): DVS sorption isotherm at 25° C. On the procedure:
Hygroscopicity studies of salts were carried out by preparation of Dynamic Vapour Sorption (DVS) profiles, with a TA instrument Q5000 apparatus. After an initial stabilization period (samples are pre-dried at 60° C. under vacuum), isotherms (at 25° C.) were obtained for each sample: a moisture sorption from 0 to 95% relative humidity (RH) and moisture desorption from 95% RH to dryness. Both isotherms were performed in 5% and 10% humidity steps.
The relative humidity (RH) was controlled by a mixture of wet and dry nitrogen stream. The RH was held constant until the equilibrium had been obtained (constant weight) or until the maximum time has been reached, before changing the RH to the next level.

Data set [2] is described as follows: Stability study under forced conditions (one week at 40° C. and 70% RH, XRPD check). The class given is physicochemical. On the procedure:
Stability studies under forced conditions were carried out by keeping the product under study for one week at 40° C. and 70% RH. Salts were analyzed by XRPD to check any change in the crystalline form.

The nature of data set [3]: Solubility screen assay (nephelometry). Particulars: 37° C.
Protocol: (§1) Solubility screen assays were carried out as following: stock solutions (10^−2M) of the assayed compounds were diluted to decreased molarity from 500 μM to 0.256 nM, in 384 well transparent plate (Greiner 781101) with 5% DMSO: 95% PBS buffer. Samples were incubated at 37° C. and read after 2 and 4 hours in a NEPHELOstar Plus (BMGLABTECH).
A short description of data set [4]: Oral bioavailability assay: plasma pharmacokinetics after single IV and PO administration. The settings on record: male SD rats.
Protocol: (§2) Animals were divided into two groups: Group 1 (IV: 1 mg/kg) and Group 2 (PO: 5 mg/kg). […] The blood samples were collected from set of three rats at each time point in labeled micro centrifuge tube containing K2EDTA solution as anticoagulant at Pre-dose, 0.083, 0.25, 0.5, 1, 2, 4, 8 and 24 hr (IV) and Pre-dose, 0.25, 0.5, 1, 2, 4, 6, 8 and 24 hr (PO). Plasma samples were separated by centrifugation of whole blood and stored below −70±10° C. until bioanalysis. All samples were processed for analysis by protein precipitation using acetonitrile and analyzed with fit-for-purpose LC-MS/MS method (LLOQ=1.00 ng/ml). Pharmacokinetic parameters were calculated using the non-compartmental analysis tool of Phoenix WinNonlin® (Version 6.3).
(§3) AUC last refers to the area under the curve from the time of dosing to the time of last observation that is greater than the limit of quantitation.
(§4) Clearance refers to the measurement of the ability of the body to remove drug from the plasma, and is calculated from the intravenous dosing.
(§5) F % refers to the bioavailability. The systemic availability of a compound after oral administration is calculated using the following equation: F(%)=(AUClast PO×Dose IV/AUClast IV×Dose PO)×100
A further data set is described as follows: in vivo. The settings on record: male, SD, rat.
A further data set is described as follows: physchem. The settings on record: 37 °C, aqueous with cosolvent or surfactant or cyclodextrin, kinetic from dmso stock.
[5] abbreviates: listed as (1R-3S)-3-(5-cyano-4-phenyl-1,3-thiazol-2-ylcarbamoyl)cyclopentane carboxylic ac.
Where [6] appears, read: DVS, usual drug storage conditions (<75% RH).

Protocol for in vivo: as §2, §3, §4, §5
Protocol for physchem: as §1

With `N#Cc1sc(NC(=O)[C@H]2CC[C@@H](C(=O)O)C2)nc1-c1ccccc1` [(1R,3S)-3-(5-cyano-4-phenyl-1,3-thiazol-2-ylcarbamoyl)cyclop] [1,3-dihydroxy-2-(hydroxymethyl)propan-2-aminium (1R,3S)-3-((5-cyano-4-phenylthiazol-2-yl)carbamoyl)cyclopentane-1-carboxylate], the “moisture content at 25% RH” value in data set [1] (setting [5]) came to 0.0722%. Also, the “moisture content at 55% RH” value in data set [1] (setting [5]) worked out at 0.1165%. Moreover, the “moisture content at 75% RH (variation in the moisture content)” value (shortened to “moisture content at 75% RH”) was determined as 0.2096% in data set [1] (setting [5]) and 0.17% in data set [1] (listed as tromethamine salt). Besides, the “hygroscopicity (result in words)” value in data set [1] (setting [6]) is given as “less hygroscopic than the free acid form”; in data set [1] (DVS, usual drug storage conditions (<75% RH), listed as tromethamine salt), “less hygroscopic than free acid”. The “stability under forced conditions (result in words)” value (from here on “stability under forced conditions”) in data set [2] was “no cristallinity changes, colour or any other change in the aspect were observed; also recorded: stable solid, even under forced stability conditions”. In addition, the “solubility compared with other salts and free acid” value in data set [3] is listed as “higher solubility compared to others salts”. The compound also showed an AUC last in data set [4] (iv 1 mg/Kg, plasma, 1 mg/kg) of 2373.87 ng·h/mL. In addition, in data set [4] (iv 1 mg/Kg, 1 mg/kg), the clearance was found to be 7.11 mL/min/kg.

In the case of `N#Cc1sc(NC(=O)[C@H]2CC[C@@H](C(=O)O)C2)nc1-c1ccccc1` [(1R,3S)-3-(5-cyano-4-phenyl-1,3-thiazol-2-ylcarbamoyl)cyclop] [(1R,3S)-3-(5-cyano-4-phenyl-1,3-thiazol-2-ylcarbamoyl)cyclopentane carboxylic acid], in data set [1], the “moisture content at 25% RH” value was determined as 0.1283%, the “moisture content at 55% RH” value was found to be 0.3008% and the “moisture content at 75% RH” value worked out at 0.4369%. In addition, the “moisture content at 75% RH” value in data set [1] (listed as free acid) was 0.43%. The “hygroscopicity (result in words)” value in data set [1] (setting [6]) is reported as “exhibits certain levels of hygroscopicity”.

With `N#Cc1sc(NC(=O)[C@H]2CC[C@@H](C(=O)O)C2)nc1-c1ccccc1` [(1R,3S)-3-(5-cyano-4-phenyl-1,3-thiazol-2-ylcarbamoyl)cyclopentane carboxylic acid], the AUC(0-t) (in general, the area under the concentration-time curve up to a stated or last time point) in data set [4] (male, SD, rat, plasma, iv, 1 mg/kg, AUC last, iv 1 mg/Kg) was determined as 2200 ng·h/mL. Moreover, the clearance in data set [4] (male, SD, rat, plasma, iv, 1 mg/kg, Clearance, iv 1 mg/Kg) stood at 6.3 mL/min/kg.

For `CCNCC.N#Cc1sc(NC(=O)[C@H]2CC[C@@H](C(=O)O)C2)nc1-c1ccccc1` [Diethylammonium (1R,3S)-3-((5-cyano-4-phenylthiazol-2-yl)carbamoyl)cyclopentane-1-carboxylate], the “stability under forced conditions” value in data set [2] is “showed some degradation”. In data set [4] (iv 1 mg/Kg), this compound returned a clearance of 5.02 mL/min/kg. Moreover, the AUC last in data set [4] (iv 1 mg/Kg, plasma) is 3383.00 ng·h/mL; in data set [4] (po 5 mg/Kg, plasma), 11580.30 ng·h/mL. Moreover, the “F % (bioavailability)” value in data set [4] (po 5 mg/Kg vs iv 1 mg/Kg, from AUClast) was found to be 68%. In addition, in data set [4] (po 5 mg/Kg, solution in normal saline, plasma), the Cmax – broadly, the highest concentration seen after dosing – was determined as 5906.53 ng/mL.

Turning to `N#Cc1sc(NC(=O)[C@H]2CC[C@@H](C(=O)[O-])C2)nc1-c1ccccc1.[Na+]` [Sodium (1R,3S)-3-((5-cyano-4-phenylthiazol-2-yl)carbamoyl)cyclopentane-1-carboxylate], the “hygroscopicity (result in words)” value in data set [1] (setting [6]) was “showed evident hygroscopicity”. For the same compound, the “stability under forced conditions” value in data set [2] was “did not have good stability, changed color”. Moreover, in the data set “in vivo” (iv, 1 mg/kg), the AUC(0-t) worked out at 5090 ng·h/mL and the clearance worked out at 3.31 mL/min/kg. In the data set “in vivo” (po, 5 mg/kg), the AUC(0-t) is 21600 ng·h/mL; the Cmax stood at 13200 ng/mL; the bioavailability (usually the share of a dose that reaches the circulation, judged against a reference dose that is usually intravenous) is 85%. In the data set “physchem”, the solubility (commonly the dissolved amount per volume that the medium holds) is 36.3 µM.

For “Magnesium (1R,3S)-3-((5-cyano-4-phenylthiazol-2-yl)carbamoyl)cyclopentane-1-carboxylate”, in data set [1], the “hygroscopicity (result in words)” value was “very hygroscopic”, the “moisture content at 25% RH” value is 4.929%, the “moisture content at 55% RH” value is 11.27% and the “moisture content at 75% RH” value is recorded as 18.11%. In addition, in data set [1] (listed as magnesium salt), the “moisture content at 75% RH” value is given as 18%.
